Data from patent publication US20220105150A1, “AMPHIPATHIC ALPHA-HELICAL ANTIMICROBIAL PEPTIDES TREAT INFECTIONS BY GRAM-NEGATIVE PATHOGENS” (priority 2019, published 2022).
Square brackets hold non-standard residues; d marks the D form. dOrn = NCCC[C@@H](N)C(=O)O; Dab = NCC[C@H](N)C(=O)O; Dap = NC[C@H](N)C(=O)O

Key:
[1] = system: A. baumannii strains from JMI Laboratories; conditions: 20 A. baumannii isolates from JMI Laboratories; cited from earlier work
[2] = system: Acinetobacter baumannii strains resistant to Polymyxin B and Colistin; conditions: results provided by MERCK, cited from earlier work; for MICGM: geometric mean over seven strains; for MIC MB9941: strain MB9941; for MIC MB9949: strain MB9949; for MIC MB9951: strain MB9951; for MIC MB9952: strain MB9952; for MIC MB9953: strain MB9953; for MIC MB9955: strain MB9955; for MIC MB9963: strain MB9963
serum proteins = assay: cell-based or functional assay
[3] = target: the molecule itself; assay: RP-HPLC temperature profiling, self-association (dimerization/oligomerization) against random coil control RC

## NCC[C@H](O)C(=O)N[C@@H]1C[C@H](N)[C@@H](O[C@H]2O[C@H](CN)[C@@H](O)[C@H](O)[C@H]2O)[C@H](O)[C@H]1O[C@H]1O[C@H](CO)[C@@H](O)[C@H](N)[C@H]1O [Amikacin]
[1]
  number of resistant isolates out of the number of isolates screened: 17/20

## C[C@H]1[C@H](NC(=O)/C(=N\OC(C)(C)C(=O)O)c2csc(N)n2)C(=O)N1S(=O)(=O)O [Aztreonam]
[1]
  number of resistant isolates out of the number of isolates screened: 20/20

## CO/N=C(\C(=O)N[C@@H]1C(=O)N2C(C(=O)[O-])=C(C[N+]3(C)CCCC3)CS[C@H]12)c1csc(N)n1 [Cefepime]
[1]
  number of resistant isolates out of the number of isolates screened: 18/20

## CC(C)(O/N=C(\C(=O)N[C@@H]1C(=O)N2C(C(=O)[O-])=C(C[n+]3ccccc3)CS[C@H]12)c1csc(N)n1)C(=O)O [Ceftazidime]
[1]
  number of resistant isolates out of the number of isolates screened: 17/20

## O=C(O)c1cn(C2CC2)c2cc(N3CCNCC3)c(F)cc2c1=O [Ciprofloxacin]
[1]
  number of resistant isolates out of the number of isolates screened: 15/20

## C[C@@H](O)[C@H]1C(=O)N2C(C(=O)O)=C(S[C@@H]3CN[C@H](CNS(N)(=O)=O)C3)[C@H](C)[C@H]12 [Doripenem]
[1]
  number of resistant isolates out of the number of isolates screened: 17/20

## C[C@@H](O)[C@H]1C(=O)N2C(C(=O)O)=C(S[C@@H]3CN[C@H](C(=O)N(C)C)C3)[C@H](C)[C@H]12 [Meropenem]
[1]
  number of resistant isolates out of the number of isolates screened: 17/20

## NC[C@H]1O[C@H](O[C@H]2[C@H](O)[C@@H](O[C@H]3O[C@H](CO)[C@@H](O)[C@H](N)[C@H]3O)[C@H](N)C[C@@H]2N)[C@H](N)C[C@@H]1O [Tobramycin]
[1]
  number of resistant isolates out of the number of isolates screened: 18/20

## Ampicillin-sulbactam
[1]
  number of resistant isolates out of the number of isolates screened: 17/20

## Ceftazidime-avibactam
[1]
  number of resistant isolates out of the number of isolates screened: 17/20

## Colistin
[2]
  MICGM: >28 µM
  MIC MB9941: >28 µM
  MIC MB9949: >28 µM
  MIC MB9951: >28 µM
  MIC MB9952: >28 µM
  MIC MB9953: >28 µM
  MIC MB9955: >28 µM
  MIC MB9963: >28 µM
[1]
  number of resistant isolates out of the number of isolates screened: 10/20

## Gentamicin
[1]
  number of resistant isolates out of the number of isolates screened: 18/20

## Piperacillin-tazobactam
[1]
  number of resistant isolates out of the number of isolates screened: 19/20

## Polymyxin B
[2]
  MICGM: >25 µM
  MIC MB9941: >25 µM
  MIC MB9949: >25 µM
  MIC MB9951: >25 µM
  MIC MB9952: >25 µM
  MIC MB9953: >25 µM
  MIC MB9955: >25 µM
  MIC MB9963: >25 µM

B1: D105(K13A/K16A)-(Lys1-6Dap-1) (peptide)
peptide: Ac-[dK][dL][Dap][dS][dL][dL][Dap][dT][dL][dS][Dap][dA][dA][dA][dA][dA][dL][Dap][dT][dL][dL][Dap][dA][dL][dS][Dap]-NH2
SMILES: CC(=O)N[C@H](CCCCN)C(=O)N[C@H](CC(C)C)C(=O)N[C@@H](CN)C(=O)N[C@H](CO)C(=O)N[C@H](CC(C)C)C(=O)N[C@H](CC(C)C)C(=O)N[C@@H](CN)C(=O)N[C@@H](C(=O)N[C@H](CC(C)C)C(=O)N[C@H](CO)C(=O)N[C@@H](CN)C(=O)N[C@H](C)C(=O)N[C@H](C)C(=O)N[C@H](C)C(=O)N[C@H](C)C(=O)N[C@H](C)C(=O)N[C@H](CC(C)C)C(=O)N[C@@H](CN)C(=O)N[C@@H](C(=O)N[C@H](CC(C)C)C(=O)N[C@H](CC(C)C)C(=O)N[C@@H](CN)C(=O)N[C@H](C)C(=O)N[C@H](CC(C)C)C(=O)N[C@H](CO)C(=O)N[C@@H](CN)C(N)=O)[C@H](C)O)[C@H](C)O
notes: Control AMP without specificity determinants (Ala13/Ala16); also called D105(A13/A16-6Dap-1); D105(K13A/K16A-6 Dap-1)
Serum proteins
  MIC (µM) against A. baumannii strain 649 in 25% human serum (no serum: 0.8): 12.5 µM
  fold loss of antimicrobial activity in 25% human sera: 15 fold
[3]
  PA (self-association parameter): 18 min

B2: D86(K13A/K16A)-(Lys1-6Dab-1) (peptide)
peptide: Ac-[dK][dL][Dab][dS][dL][dL][Dab][dT][dL][dS][Dab][dA][dA][dA][dA][dA][dL][Dab][dT][dL][dL][Dab][dA][dL][dS][Dab]-NH2
SMILES: CC(=O)N[C@H](CCCCN)C(=O)N[C@H](CC(C)C)C(=O)N[C@@H](CCN)C(=O)N[C@H](CO)C(=O)N[C@H](CC(C)C)C(=O)N[C@H](CC(C)C)C(=O)N[C@@H](CCN)C(=O)N[C@@H](C(=O)N[C@H](CC(C)C)C(=O)N[C@H](CO)C(=O)N[C@@H](CCN)C(=O)N[C@H](C)C(=O)N[C@H](C)C(=O)N[C@H](C)C(=O)N[C@H](C)C(=O)N[C@H](C)C(=O)N[C@H](CC(C)C)C(=O)N[C@@H](CCN)C(=O)N[C@@H](C(=O)N[C@H](CC(C)C)C(=O)N[C@H](CC(C)C)C(=O)N[C@@H](CCN)C(=O)N[C@H](C)C(=O)N[C@H](CC(C)C)C(=O)N[C@H](CO)C(=O)N[C@@H](CCN)C(N)=O)[C@H](C)O)[C@H](C)O
notes: Control AMP without specificity determinants (Ala13/Ala16); also called D86(A13/A16-6Dab-1); D86(K13A/K16A-6 Dab-1)
Serum proteins
  MIC (µM) against A. baumannii strain 649 in 25% human serum (no serum: 0.8): 3 µM
  fold loss of antimicrobial activity in 25% human sera: 4 fold
[3]
  PA (self-association parameter): 12.5 min

B3: D105(Lys1-6Dap-1) (peptide)
peptide: Ac-[dK][dL][Dap][dS][dL][dL][Dap][dT][dL][dS][Dap][dA][dK][dA][dA][dK][dL][Dap][dT][dL][dL][Dap][dA][dL][dS][Dap]-NH2
SMILES: CC(=O)N[C@H](CCCCN)C(=O)N[C@H](CC(C)C)C(=O)N[C@@H](CN)C(=O)N[C@H](CO)C(=O)N[C@H](CC(C)C)C(=O)N[C@H](CC(C)C)C(=O)N[C@@H](CN)C(=O)N[C@@H](C(=O)N[C@H](CC(C)C)C(=O)N[C@H](CO)C(=O)N[C@@H](CN)C(=O)N[C@H](C)C(=O)N[C@H](CCCCN)C(=O)N[C@H](C)C(=O)N[C@H](C)C(=O)N[C@H](CCCCN)C(=O)N[C@H](CC(C)C)C(=O)N[C@@H](CN)C(=O)N[C@@H](C(=O)N[C@H](CC(C)C)C(=O)N[C@H](CC(C)C)C(=O)N[C@@H](CN)C(=O)N[C@H](C)C(=O)N[C@H](CC(C)C)C(=O)N[C@H](CO)C(=O)N[C@@H](CN)C(N)=O)[C@H](C)O)[C@H](C)O
notes: Designed 26-residue AMP; Lys13/Lys16 specificity determinants; also called D105(6Dap-1); D105-6 Dap-1
Serum proteins
  MIC (µM) against A. baumannii strain 649 in 25% human serum (no serum: 0.8): 3 µM
  fold change of MIC in 25% human sera against no serum: 4 fold
[3]
  PA (self-association parameter): 3.7 min

B4: D84(Lys1-6Lys-1) (peptide)
peptide: Ac-[dK][dL][dK][dS][dL][dL][dK][dT][dL][dS][dK][dA][dK][dA][dA][dK][dL][dK][dT][dL][dL][dK][dA][dL][dS][dK]-NH2
SMILES: CC(=O)N[C@H](CCCCN)C(=O)N[C@H](CC(C)C)C(=O)N[C@H](CCCCN)C(=O)N[C@H](CO)C(=O)N[C@H](CC(C)C)C(=O)N[C@H](CC(C)C)C(=O)N[C@H](CCCCN)C(=O)N[C@@H](C(=O)N[C@H](CC(C)C)C(=O)N[C@H](CO)C(=O)N[C@H](CCCCN)C(=O)N[C@H](C)C(=O)N[C@H](CCCCN)C(=O)N[C@H](C)C(=O)N[C@H](C)C(=O)N[C@H](CCCCN)C(=O)N[C@H](CC(C)C)C(=O)N[C@H](CCCCN)C(=O)N[C@@H](C(=O)N[C@H](CC(C)C)C(=O)N[C@H](CC(C)C)C(=O)N[C@H](CCCCN)C(=O)N[C@H](C)C(=O)N[C@H](CC(C)C)C(=O)N[C@H](CO)C(=O)N[C@H](CCCCN)C(N)=O)[C@H](C)O)[C@H](C)O
notes: Designed 26-residue AMP; Lys at 3, 7, 11, 18, 22, 26; Lys13/Lys16 specificity determinants; also called D84(6 Lys-1); D84-6 Lys-1
Serum proteins
  MIC (µM) against A. baumannii strain 649 in 25% human serum (no serum: 0.3): 0.3 µM
[3]
  PA (self-association parameter): 5.9 min

B5: D87(Lys1-6Arg-1) (peptide)
peptide: Ac-[dK][dL][dR][dS][dL][dL][dR][dT][dL][dS][dR][dA][dK][dA][dA][dK][dL][dR][dT][dL][dL][dR][dA][dL][dS][dR]-NH2
SMILES: CC(=O)N[C@H](CCCCN)C(=O)N[C@H](CC(C)C)C(=O)N[C@H](CCCNC(=N)N)C(=O)N[C@H](CO)C(=O)N[C@H](CC(C)C)C(=O)N[C@H](CC(C)C)C(=O)N[C@H](CCCNC(=N)N)C(=O)N[C@@H](C(=O)N[C@H](CC(C)C)C(=O)N[C@H](CO)C(=O)N[C@H](CCCNC(=N)N)C(=O)N[C@H](C)C(=O)N[C@H](CCCCN)C(=O)N[C@H](C)C(=O)N[C@H](C)C(=O)N[C@H](CCCCN)C(=O)N[C@H](CC(C)C)C(=O)N[C@H](CCCNC(=N)N)C(=O)N[C@@H](C(=O)N[C@H](CC(C)C)C(=O)N[C@H](CC(C)C)C(=O)N[C@H](CCCNC(=N)N)C(=O)N[C@H](C)C(=O)N[C@H](CC(C)C)C(=O)N[C@H](CO)C(=O)N[C@H](CCCNC(=N)N)C(N)=O)[C@H](C)O)[C@H](C)O
notes: De novo designed 26-residue amphipathic alpha-helical antimicrobial peptide; Arg at 3, 7, 11, 18, 22, 26; Lys13/Lys16 specificity determinants; also called D87(6Arg-1); D87-6 Arg-1
Serum proteins
  MIC (µM) against A. baumannii strain 649 in 25% human serum (no serum: 0.7): 1.3 µM
[3]
  PA (self-association parameter): 5.9 min

B6: D85(K13A/K16A)-(Lys1-6Orn-1) (peptide)
peptide: Ac-[dK][dL][dOrn][dS][dL][dL][dOrn][dT][dL][dS][dOrn][dA][dA][dA][dA][dA][dL][dOrn][dT][dL][dL][dOrn][dA][dL][dS][dOrn]-NH2
SMILES: CC(=O)N[C@H](CCCCN)C(=O)N[C@H](CC(C)C)C(=O)N[C@H](CCCN)C(=O)N[C@H](CO)C(=O)N[C@H](CC(C)C)C(=O)N[C@H](CC(C)C)C(=O)N[C@H](CCCN)C(=O)N[C@@H](C(=O)N[C@H](CC(C)C)C(=O)N[C@H](CO)C(=O)N[C@H](CCCN)C(=O)N[C@H](C)C(=O)N[C@H](C)C(=O)N[C@H](C)C(=O)N[C@H](C)C(=O)N[C@H](C)C(=O)N[C@H](CC(C)C)C(=O)N[C@H](CCCN)C(=O)N[C@@H](C(=O)N[C@H](CC(C)C)C(=O)N[C@H](CC(C)C)C(=O)N[C@H](CCCN)C(=O)N[C@H](C)C(=O)N[C@H](CC(C)C)C(=O)N[C@H](CO)C(=O)N[C@H](CCCN)C(N)=O)[C@H](C)O)[C@H](C)O
notes: Control AMP without specificity determinants (Ala13/Ala16); also called D85(A13/A16-6Orn-1); D85(K13A/K16A-6 Orn-1)
[3]
  PA (self-association parameter): 28 min
